Some test systems named below: SNB-78; DMS-114; M19-MEL; KM-20L2; DLD-1; DMS-273; HOP-18; XF498; RXF 631.
Holding throughout (experiment): NCI tumour cell line growth inhibition, 48 h

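Each compound was tested at five concentrations against cells in 96-well plates for 48 hours. The concentration for 50% growth inhibition is given as GI50.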 The source made the active and inactive calls. No stated cut-off is given here; in the data, active = GI50 up to about 1.1 µM and inactive = higher.

As for `NS(=O)(=O)c1ccc(NC2=CC(=O)C(=O)c3ccccc32)cc1`, the GI50 in the assay on SNB-78 is > 100 µM (inactive); in the assay on DMS-114 it was 43.2 µM (inactive); with M19-MEL, > 100 µM (inactive); with KM-20L2, > 100 µM (inactive); in the assay on DLD-1, > 100 µM (inactive); in the assay with DMS-273 it was > 100 µM (inactive). Moreover, in the assay with HOP-18, the GI50 was > 100 µM (inactive).
As to `O=[N+]([O-])c1ccc(/C=N/C23CC4CC(CC(C4)C2)C3)cc1`, the GI50 was > 100 µM (inactive) in the assay with SNB-78; 91.2 µM (inactive) with DMS-114; > 100 µM (inactive) in the assay on M19-MEL; > 100 µM (inactive) in the assay on KM-20L2; > 100 µM (inactive) in the assay with DLD-1; > 100 µM (inactive) with DMS-273. Besides, the GI50 with HOP-18, in the assay with XF498 and in the assay with RXF 631 was > 100 µM (inactive) throughout.
As for `CN(C)/C=C/C(=O)c1cccc(C(=O)/C=C/N(C)C)n1`, the GI50 in the assay with SNB-78, in the assay on M19-MEL, in the assay with KM-20L2, with DLD-1, in the assay on DMS-273 and in the assay on HOP-18 was > 100 µM (inactive) throughout. The GI50 with XF498 was > 100 µM (inactive).
Turning to `CC(C)=CC(=O)OC1C2C(C)=CC(=O)C(O)C2(C)C2C3(O)OCC24C(CC(=O)OC14)C(C)C3O` (stereo unspecified), the GI50 was 0.0311 µM (active) in the assay on SNB-78; 0.0316 µM (active) in the assay with KM-20L2; 0.0211 µM (active) in the assay with DLD-1; 0.00348 µM (active) with DMS-273; 0.0246 µM (active) in the assay with XF498.
Take `O=C1c2c(c3c4ccccc4n(CC4CO4)c3c3[nH]c4ccccc4c23)C(=O)N1Cc1ccccc1` (stereo unspecified): the GI50 in the assay on SNB-78 was > 100 µM (inactive); in the assay with DMS-114 it was > 100 µM (inactive); in the assay on M19-MEL, > 100 µM (inactive); in the assay on DLD-1, > 10 µM (inactive); with DMS-273 it was > 100 µM (inactive); in the assay with XF498 it was 3.7 µM (inactive). Also, in the assay on RXF 631, the GI50 is > 100 µM (inactive).
Consider `CC1=NN(C(=O)Cc2ccccc2)C(=O)/C1=C\c1ccc([N+](=O)[O-])cc1`, for which the GI50 in the assay on SNB-78, in the assay on DMS-114, in the assay on M19-MEL, in the assay with KM-20L2, in the assay on DLD-1 and with XF498 was > 100 µM (inactive) throughout.
For `N#CCN1C(=O)c2cc([N+](=O)[O-])cc3cc([N+](=O)[O-])cc(c23)C1=O`, the GI50 with SNB-78 was 16.7 µM (inactive); in the assay with DMS-114, 15.2 µM (inactive); in the assay with M19-MEL, 14.3 µM (inactive); in the assay on KM-20L2, 12.9 µM (inactive); in the assay on DLD-1, 7.05 µM (inactive); in the assay on DMS-273, 23.9 µM (inactive). For the same compound, the GI50 in the assay with HOP-18 is 64.3 µM (inactive); in the assay with XF498 it was 12.2 µM (inactive); with RXF 631, 20 µM (inactive).
With `O=c1c2ccccc2nc(-c2cccc(Cl)c2)n1NCC1(O)OCC(O)C(O)C1O` (stereo unspecified), the GI50 in the assay with SNB-78 is > 100 µM (inactive); in the assay on DMS-114 it was > 100 µM (inactive); in the assay on M19-MEL, > 100 µM (inactive); in the assay with KM-20L2 it was > 100 µM (inactive); in the assay on DMS-273, > 100 µM (inactive); in the assay with RXF 631 it was 66.5 µM (inactive).
Take `CCN(CC)CC(=O)O[C@]1(CC)C(=O)OCc2c1cc1n(c2=O)Cc2cc3ccccc3nc2-1`: the GI50 in the assay on SNB-78 was 0.953 µM (active); with DMS-114, 0.0142 µM (active); with M19-MEL, 0.0902 µM (active); in the assay with KM-20L2, 0.152 µM (active); in the assay on DLD-1, 0.916 µM (active); with DMS-273, < 0.01 µM (active). Also, the GI50 in the assay on HOP-18 was 0.0908 µM (active); with XF498 it was 0.2 µM (active).
For the compound `CN1C(=O)N(c2nc3ccccc3[nH]2)C(C)(C)C1=O`, the GI50 with SNB-78, with DMS-114, with M19-MEL, in the assay with KM-20L2, in the assay on DLD-1 and in the assay on DMS-273 was > 100 µM (inactive) in each case. In addition, the GI50 with HOP-18 and in the assay with XF498 was > 100 µM (inactive) in each case.
With `COC(=O)N/N=C(/CCC(=O)Nc1ccc(C)c(C)c1)CC(=O)C(C)(C)C`, the GI50 with DMS-114, with M19-MEL, with KM-20L2, in the assay with DLD-1, in the assay with DMS-273 and in the assay with HOP-18 was > 100 µM (inactive) each time. In addition, the GI50 with XF498 was > 100 µM (inactive).
Turning to `CCOC(=O)c1[nH]c(COC(C)=O)c(CCCOC(C)=O)c1CCCOC(C)=O`, the GI50 in the assay on SNB-78, in the assay with KM-20L2, in the assay on DMS-273 and in the assay with XF498 was > 100 µM (inactive) throughout.
In the case of `CC1=CC=C2C(C)(C)CC[C@@H]3OC(=O)[C@H]1[C@]23C`, the GI50 is 37.1 µM (inactive) in the assay on SNB-78; > 100 µM (inactive) with DMS-114; > 100 µM (inactive) with M19-MEL; > 100 µM (inactive) with KM-20L2; > 100 µM (inactive) in the assay with DLD-1; > 100 µM (inactive) in the assay on DMS-273. Moreover, the GI50 in the assay with HOP-18, with XF498 and in the assay with RXF 631 was > 100 µM (inactive) throughout.
For the compound `O=C1C2C=CC(n3[nH]c(=O)n(Cc4ccccc4)c3=O)CC2C(=O)N1c1cccc(Cl)c1` (stereo unspecified), the GI50 in the assay on SNB-78, in the assay on DMS-114, with M19-MEL, in the assay with KM-20L2, in the assay on DLD-1 and in the assay on DMS-273 was > 100 µM (inactive) each time. Also, the values for the GI50 in the assay on HOP-18 and with XF498 were > 100 µM (inactive) and 65.9 µM (inactive), respectively.
`COc1ccc(Cc2c3cc(O)c([O-])cc3cc[n+]2C)cc1`: the GI50 with SNB-78 was > 100 µM (inactive); in the assay with DMS-114, 12.8 µM (inactive); in the assay with M19-MEL, 20.7 µM (inactive); with KM-20L2 it was 51.1 µM (inactive); with DLD-1 it was 10.6 µM (inactive); in the assay with DMS-273 it was 16.5 µM (inactive). Also, the GI50 in the assay with HOP-18 is 36.1 µM (inactive); in the assay with XF498, 18.4 µM (inactive); with RXF 631 it was 6.49 µM (inactive).
Consider `O=C1OC(c2ccccc2)=N/C1=C/NC(Cc1ccccc1)C(=O)O` (stereo unspecified), for which the GI50 in the assay with SNB-78, with M19-MEL, in the assay on KM-20L2, with DLD-1, with DMS-273 and with RXF 631 was > 100 µM (inactive) throughout.
On to `N#CC(C#N)=CSc1ccccc1`, for which the GI50 with DMS-114 is 17.7 µM (inactive); with KM-20L2 it was 32.7 µM (inactive); with DLD-1 it was 24 µM (inactive); with DMS-273, 21.4 µM (inactive); with HOP-18 it was > 100 µM (inactive); in the assay on XF498 it was 53.7 µM (inactive). The GI50 in the assay on RXF 631 is 20.6 µM (inactive).
For the compound `N#Cc1cc([N+](=O)[O-])ccc1NC(=O)/C(=N\NC(=O)c1ccncc1)C(c1cnc2ccc([N+](=O)[O-])cc2n1)[N+](=O)[O-]` (stereo unspecified), the GI50 is 6.34 µM (inactive) with SNB-78; 1.6 µM (inactive) with DMS-114; 0.566 µM (active) in the assay with M19-MEL; 4.26 µM (inactive) with KM-20L2; 1.82 µM (inactive) with DMS-273; 1.5 µM (inactive) in the assay on HOP-18. In addition, the GI50 with XF498 was 1.69 µM (inactive); in the assay on RXF 631 it was 2.32 µM (inactive).
For `COc1ccc(/C=C/c2nnc(S)[nH]2)cc1OC`, the GI50 in the assay on SNB-78, with DMS-114, with M19-MEL, with KM-20L2, with DLD-1 and in the assay with DMS-273 was > 100 µM (inactive) in each case. For the same compound, the GI50 in the assay on XF498 was > 100 µM (inactive).
Consider `O=C1C(Cl)C(c2cc(Br)cc(Br)c2O)N1n1cnc2ccccc2c1=O` (stereo unspecified), for which the GI50 with SNB-78 is 20.7 µM (inactive); with M19-MEL, 16.7 µM (inactive); in the assay on KM-20L2, 32.5 µM (inactive); with DLD-1, 8.87 µM (inactive); in the assay on DMS-273, 29.4 µM (inactive); in the assay with HOP-18 it was 24.5 µM (inactive). Moreover, the GI50 in the assay on XF498 was 23.3 µM (inactive).
With `COc1ccc(/C(C)=N/NC(N)=S)c(OC)c1`, the GI50 is > 100 µM (inactive) in the assay on SNB-78; 97.1 µM (inactive) in the assay with DMS-114; > 100 µM (inactive) in the assay on M19-MEL; > 100 µM (inactive) with KM-20L2; > 100 µM (inactive) in the assay on DLD-1; > 100 µM (inactive) in the assay with HOP-18. In addition, the GI50 with XF498 and in the assay on RXF 631 was > 100 µM (inactive) in each case.
`Clc1ccccc1C1N2CCCCC2[C@@H]2c3[nH]c4ccccc4c3CCN12` (stereo partly specified): the GI50 in the assay on SNB-78 is 25.4 µM (inactive); with DMS-114 it was 20 µM (inactive); in the assay with M19-MEL, 14.7 µM (inactive); in the assay with KM-20L2, 18.6 µM (inactive); in the assay with DLD-1, 18.9 µM (inactive); in the assay on DMS-273, 27.4 µM (inactive). For the same compound, the GI50 is 42 µM (inactive) in the assay with HOP-18 and 19.4 µM (inactive) in the assay on XF498.
`CC1=CC(=O)CC2(C)CC[C@@H]3C[C@]12OC3(C)C` (stereo partly specified): the GI50 with SNB-78, in the assay on DMS-114, in the assay with M19-MEL, with KM-20L2, in the assay with DLD-1 and in the assay with DMS-273 was > 100 µM (inactive) each time. The GI50 with HOP-18 and with XF498 was > 100 µM (inactive) in each case.
Turning to `O=c1cc(-c2ccccc2F)[nH]c2cc3c(cc12)OCO3`, the GI50 in the assay on SNB-78 was 0.23 µM (active); in the assay with DMS-114, 0.508 µM (active); with M19-MEL, 0.236 µM (active); in the assay with DLD-1, 0.0441 µM (active); in the assay on DMS-273, 0.189 µM (active); in the assay on HOP-18, 0.544 µM (active). In the assay with XF498, the GI50 is 1.5 µM (inactive).
`N=C1NC(=O)N2CC12` (stereo unspecified) [IMEXON]: the GI50 in the assay on DMS-114, in the assay on KM-20L2, in the assay on DLD-1, in the assay on DMS-273, in the assay with HOP-18 and in the assay with XF498 was > 100 µM (inactive) each time.

Values taken from ChEMBL document CHEMBL1201862, “PubChem BioAssay data set” (2004).
